In US9040519B2, “Fused tetracyclic pyrido [4,3-B] indole and pyrido [3,4-B] indole derivatives and methods of use” (Medivation Technologies, Inc., priority 2010, dated 2015):

Key:
[1] = molecular target: T1, human recombinant histamine H1 receptor (Homo sapiens, UniProt P35367); assay: Histamine H1 radioligand binding ([3H]Pyrilamine); conditions: compound at 0.1 μM; 1.2 nM [3H]Pyrilamine; CHO K1 cells; read-out: Histamine H1 Binding (0.1 μM), percentage inhibition
T1 construct: expressed in transfected cells; host or cells: CHO-K1
T1 sequence (P35367 whole entry): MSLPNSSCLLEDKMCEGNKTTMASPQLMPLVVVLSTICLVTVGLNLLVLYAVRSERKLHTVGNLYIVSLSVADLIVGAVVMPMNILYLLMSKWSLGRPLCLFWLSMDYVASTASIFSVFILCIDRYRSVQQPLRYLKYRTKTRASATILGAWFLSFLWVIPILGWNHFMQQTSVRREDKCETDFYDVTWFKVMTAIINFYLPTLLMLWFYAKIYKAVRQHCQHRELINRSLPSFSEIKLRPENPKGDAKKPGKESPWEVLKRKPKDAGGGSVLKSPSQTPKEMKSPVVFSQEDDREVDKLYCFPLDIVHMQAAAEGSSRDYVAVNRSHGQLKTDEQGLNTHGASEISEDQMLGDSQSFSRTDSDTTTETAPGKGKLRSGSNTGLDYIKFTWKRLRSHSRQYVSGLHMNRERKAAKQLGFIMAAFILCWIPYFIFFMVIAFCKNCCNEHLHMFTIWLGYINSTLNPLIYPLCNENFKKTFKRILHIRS
Protocol: To evaluate in radioligand binding assays the activity of compounds of the invention, human recombinant histamine H1 receptor expressed in Chinese hamster ovary (CHO) K1 cells (De Backer, M. et al, Biochem. Biophys. Res. Comm. 197(3):1601, 1993) in a modified Tris-HCl buffer (50 mM Tris-HCl, pH 7.4, 2 mM MgCl2, 100 mM NaCl, 250 mM Sucrose) was used. Compounds of the invention were incubated with 1.2 nM [^3H]Pyrilamine for 180 min at 25° C. Non-specific binding was estimated in the presence of 1 μM Pyrilamine. Receptor proteins were filtered and washed, the filters were then counted to determine [^3H]Pyrilamine specifically bound. Compounds were screened at 1 μM or lower, using 1% DMSO as vehicle. Biochemical assay results are presented as the percent inhibition of specific binding in Table 2.

[2] = molecular target: T2, human recombinant adrenergic α2C receptor (Homo sapiens, UniProt P18825); assay: Adrenergic α2C radioligand binding ([3H]MK-912); conditions: compound at 0.1 μM; insect Sf9 cells; read-out: Percentage inhibition of ligand binding, Adrenergic α2C
T2 construct: expressed in transfected cells; host or cells: insect Sf9 cells
T2 sequence (P18825 1-462): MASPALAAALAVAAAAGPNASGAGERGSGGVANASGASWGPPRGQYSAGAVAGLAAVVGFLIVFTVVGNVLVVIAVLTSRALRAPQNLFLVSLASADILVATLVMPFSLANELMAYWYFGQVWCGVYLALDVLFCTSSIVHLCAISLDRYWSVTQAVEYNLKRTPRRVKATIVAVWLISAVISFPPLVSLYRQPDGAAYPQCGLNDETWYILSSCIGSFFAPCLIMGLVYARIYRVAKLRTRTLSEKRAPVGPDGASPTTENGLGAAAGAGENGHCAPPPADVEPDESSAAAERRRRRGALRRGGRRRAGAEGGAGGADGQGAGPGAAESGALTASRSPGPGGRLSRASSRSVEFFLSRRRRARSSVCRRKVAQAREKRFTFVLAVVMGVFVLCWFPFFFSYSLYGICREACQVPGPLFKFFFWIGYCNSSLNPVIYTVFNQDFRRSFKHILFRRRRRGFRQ
Protocol: To evaluate in radioligand binding assays the activity of compounds of the invention, human recombinant adrenergic α2C receptor expressed in insect Sf9 cells (Uhlen, S. et al, J. Pharmacol. Exp. Ther. 271:1558, 1994) in a modified Tris-HCl buffer (50 mM Tris-HCl, pH 7.4, 12.5 mM MgCl2, 2 mM EDTA) was used. Compounds of the invention were incubated with 1 nM [^3H]MK-912 for 60 min at 25° C. Non-specific binding was estimated in the presence of 10 μM WB-4101. Receptor proteins were filtered and washed, the filters were then counted to determine [^3H]MK-912 specifically bound. Compounds were screened at 1 μM or lower, using 1% DMSO as vehicle. Biochemical assay results are presented as the percent inhibition of specific binding in Table 3.

[3] = molecular target: T3, rat adrenergic α1A receptor (Rattus norvegicus, UniProt P43140); assay: Adrenergic α1A radioligand binding ([3H]Prazosin); conditions: compound at 0.1 μM; Wistar Rat submaxillary glands; read-out: Percentage inhibition of ligand binding, Adrenergic α1A
T3 construct: rat adrenergic α1A receptor obtained from Wistar Rat submaxillary glands; from tissue; host or cells: Wistar rat submaxillary glands
T3 sequence (P43140 1-466): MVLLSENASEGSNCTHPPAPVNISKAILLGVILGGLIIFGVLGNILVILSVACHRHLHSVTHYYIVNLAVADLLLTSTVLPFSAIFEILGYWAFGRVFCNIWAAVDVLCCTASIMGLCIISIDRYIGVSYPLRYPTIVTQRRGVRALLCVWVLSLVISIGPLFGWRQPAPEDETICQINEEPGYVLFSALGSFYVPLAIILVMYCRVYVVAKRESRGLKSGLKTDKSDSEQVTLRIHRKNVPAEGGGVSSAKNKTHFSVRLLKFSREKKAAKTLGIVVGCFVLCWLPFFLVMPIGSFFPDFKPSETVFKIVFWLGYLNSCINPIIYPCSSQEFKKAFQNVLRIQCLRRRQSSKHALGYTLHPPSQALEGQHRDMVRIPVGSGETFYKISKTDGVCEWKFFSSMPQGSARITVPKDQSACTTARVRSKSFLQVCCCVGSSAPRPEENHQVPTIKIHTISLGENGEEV
Protocol: To evaluate in radioligand binding assays the activity of compounds of the invention, rat adrenergic α1A receptor obtained from Wistar Rat submaxillary glands (Michel, A. et al, Br. J. Pharmacol. 98:883, 1989) in a modified Tris-HCl buffer (50 mM Tris-HCl buffer, pH 7.4, 0.5 mM EDTA) was used. Compounds of the invention were incubated with 0.25 nM [^3H]Prazosin for 60 min at 25° C. Non-specific binding was estimated in the presence of 10 μM phentolamine. Receptor proteins were filtered and washed, the filters were then counted to determine [^3H]Prazosin specifically bound. Compounds of the invention were screened at 1 μM or lower, using 1% DMSO as vehicle. Biochemical assay results are presented as the percent inhibition of specific binding in Table 3.

[4] = molecular target: T4, human recombinant serotonin (5-Hydroxytryptamine) 5-HT2A receptor (Homo sapiens, UniProt P28223); assay: Serotonin 5-HT2A radioligand binding ([3H]Ketanserin); conditions: compound at 0.1 μM; CHO K1 cells; read-out: Percentage inhibition of ligand binding, Serotonin 5-HT2A
T4 construct: expressed in transfected cells; host or cells: CHO-K1
T4 sequence (P28223 whole entry): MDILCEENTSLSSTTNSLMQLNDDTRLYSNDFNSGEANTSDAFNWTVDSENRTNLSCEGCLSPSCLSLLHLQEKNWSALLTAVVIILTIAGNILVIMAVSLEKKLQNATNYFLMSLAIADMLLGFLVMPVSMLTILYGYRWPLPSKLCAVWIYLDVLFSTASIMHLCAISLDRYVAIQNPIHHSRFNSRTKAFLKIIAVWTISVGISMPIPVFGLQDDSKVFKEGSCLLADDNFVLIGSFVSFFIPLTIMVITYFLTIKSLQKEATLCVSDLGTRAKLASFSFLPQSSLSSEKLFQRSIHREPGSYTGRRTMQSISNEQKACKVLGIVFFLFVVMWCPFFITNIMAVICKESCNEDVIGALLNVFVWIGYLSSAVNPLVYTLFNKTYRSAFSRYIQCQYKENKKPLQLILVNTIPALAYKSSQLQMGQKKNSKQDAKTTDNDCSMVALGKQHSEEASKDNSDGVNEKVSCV
Protocol: To evaluate in radioligand binding assays the activity of compounds of the invention, human recombinant serotonin (5-Hydroxytryptamine) 5-HT2A receptor expressed in Chinese hamster ovary (CHO) K1 cells (Bonhaus, D. et al, Br. J. Pharmacol. 115:622, 1995; Saucier, C. et al, J. Neurochem. 68:1998, 1997) in a 50 mM Tris-HCl buffer, pH 7.4, was used. Compounds of the invention were incubated with 0.5 nM [^3H]Ketanserin for 60 min at 25° C. Non-specific binding was estimated in the presence of 1 μM Mianserin. Receptor proteins were filtered and washed, the filters were then counted to determine [^3H]Ketanserin specifically bound. Compounds were screened at 1 μM or lower, using 1% DMSO as vehicle. Biochemical assay results are presented as the percent inhibition of specific binding in Table 4.

Row | SMILES | inhibition at 0.1 µM [1] | inhibition at 0.1 µM [2] | inhibition at 0.1 µM [3] | inhibition at 0.1 µM [4]
1 | Cc1ccc2c(c1)c1c3n2C(c2ccccc2)=CCC3(C)CN(C)C1 (stereo not drawn) [Compound 10, 2,3a,10-trimethyl-6-phenyl-2,3,3a,4-tetrahydro-1H-indolo[3,2,1-ij][1,6]naphthyridine] | 3% | 2% | -4% | 13%
2 | Cc1ccc2c(c1)c1c3n2CC(c2ccncc2)=CCC3(C)CN(C)C1 (stereo not drawn) [Compound 11, 2,3a,10-trimethyl-6-pyridin-4-yl-1,2,3,3a,4,7-hexahydro-2,7a-diaza-cyclohepta[jk]fluorene] | 2% | 1% | 25% | 10%
3 | Cc1ccc2c(c1)c1c3n2C(c2ccccc2)CCC3(C)CN(C)C1 (stereo not drawn) [Compound 12, 2,3a,10-trimethyl-6-phenyl-2,3,3a,4,5,6-hexahydro-1H-indolo[3,2,1-ij][1,6]naphthyridine] | 20% | -3% | 12% | 12%
